{"source": "patent US20100093861A1", "about": "“TREATMENT OF INSULIN RESISTANCE OR DISEASES ASSOCIATED WITH INSULIN RESISTANCE” (Stevia ApS, priority 2006, published 2010)", "key": {"[1]": {"system": "Beta2/neuroD", "test": "Affymetrix gene chip analysis of KKAy islets: Beta2/neuroD", "assay_type": "in vivo, mice", "conditions": "ISV vs. KKAy control islets, 9 weeks", "protocol": "(§1) cRNA preparation and in vitro transcription: In total 6 Affymetrix arrays MOE430 2.0 probe array cartridge were used i.e. for analysis of 3 replicas for the KKAy control group and the ISV group, respectively. Each of the 6 samples consisted of pooled RNA from 3-4 KKAy mice. Preparation of target for hybridization was prepared from 340 ng of total RNA using MessageAmp™ II aRNA Amplification Kits (Ambion), according to the manufacturers instructions. Arrays were hybridised and scanned as described elsewhere (Kruhoffer et al., 2005)."}, "[2]": {"system": "C/EBP-alpha", "test": "Gene expression in islets from diabetic KKAy-mice, real time RT-PCR (Example 2): C/EBP-alpha", "assay_type": "in vivo", "conditions": "islets of KKAy-mice after nine weeks treatment, normalized to 18S rRNA", "protocol": "(§2) A the end of the nine week period of the in vivo study in example 1 RNA was purified from Islets, muscle, liver and fat from the three experimental groups, using standard techniques as described in Kiergen, RNA easy.\n(§3) Gene expression of PDX-1, IRS1, Beta2, 11beta-HSD-1, Akt1, C/EBP-alpha, CPT1, GLUT2, IGF1, IR and Ins1 was measured with Real time RT-PCR using Taq Man Assays normalized to 18S rRNA, using the standard protocol (ABI, USA). All reagents were obtained from (ABI, USA). All probes are standard probes obtainable from ABI, USA, under the specific probe code number, given in respect of each gene."}, "[3]": {"system": "diabetic KKAy-mice", "test": "In vivo study of plasma concentrations of insulin, glucose and triglycerides in KKAy-mice after isosteviol or soybean protein (Example 1)", "conditions": "oral in diet", "protocol": "The following experiment was performed to investigate the effect of isosteviol (ISV) and soybean protein on plasma concentrations of insulin, glucose and triglycerides. Four experimental groups, each consisting of 10 KKAy-mice (obtained from Clea Japan, Tokyo, Japan) and one control group of 20 C57 mice (obtained from Taconic, Ry, Denmark), all 5 weeks old, were feed the following three test diets in a period of nine weeks. • A: standard chow diet (SCD)(ALTROMIN 1320, Brogaarden, Hørsholm). Diet A was fed to one experimental group and to the control group. • B: standard chow diet (SCD) (ALTROMIN 1320, Brogaarden, Hørsholm)+0.02 g/kg BW of ISV (Waco Chemicals, Osaka, Japan). • C: diet containing 50 weight-% standard chow+50 weight-% Soybean Protein (SBP) (NutriPharma, Oslo)\nHormones and lipids were measured from blood sample at start and end of the treatment period. Fasting blood glucose as well as body weight were measured once a week. […] The blood was taken from the tail of the animals.\nIsosteviol (ISV) and Soybean Protein (SBP) were given orally. The SBP were incorporated in the food pellet and the ISV was dissolved in absolute ethanol, the solution was inoculated on the pellets and the ethanol was allowed to evaporate, leaving the ISV on the food pellet. All diets were adjusted for vitamins and minerals, so that all diets content the same amount. Beside that, water was given ad libitum and a light cycle of 12 hours/12 hours was used. The experiment was performed in accordance with the guidelines of the Danish Council on Animal Care."}, "[4]": {"system": "Pax6", "test": "Affymetrix gene chip analysis of KKAy islets: Pax6", "assay_type": "in vivo, mice", "conditions": "ISV vs. KKAy control islets, 9 weeks", "protocol": "as §1"}, "[5]": {"system": "Foxa2", "test": "Affymetrix gene chip analysis of KKAy islets: Foxa2", "assay_type": "in vivo, mice", "conditions": "ISV vs. KKAy control islets, 9 weeks", "protocol": "as §1"}, "[6]": {"system": "11beta-HSD1", "test": "Gene expression in islets from diabetic KKAy-mice, real time RT-PCR (Example 2): 11beta-HSD1", "assay_type": "in vivo", "conditions": "islets of KKAy-mice after nine weeks treatment, normalized to 18S rRNA", "protocol": "as §2, §3"}, "[7]": {"system": "PDX-1", "test": "Gene expression in islets from diabetic KKAy-mice, real time RT-PCR (Example 2): PDX-1", "assay_type": "in vivo", "conditions": "islets of KKAy-mice after nine weeks treatment, normalized to 18S rRNA", "protocol": "as §2, §3"}, "[8]": {"conditions": "after 9 weeks of treatment, compared to standard chow diet, ISV 0.02 g/kg BW, SBP 50 weight-% of diet"}}, "data": [{"smiles": "C[C@@]12CC[C@@H]3[C@@](CC[C@H]4[C@@]3(C)CCC[C@@]4(C)C(=O)O)(CC1=O)C2", "note": "(single isomer, unassigned; ent-16) [ISV, ent-16-ketobeyeran-19-oic acid]", "values": [{"measurement": "array: change of Beta2/neuroD expression", "setting": "[1]", "result": "upregulation"}, {"measurement": "decreased expression of C/EBPα compared to standard diet", "setting": "[2]", "result": 49, "unit": "%"}, {"measurement": "reduction of plasma glucose concentration, SCD vs. treatment", "setting": "[3]; [8]", "result": 73, "unit": "%"}, {"measurement": "reduction of plasma insulin concentration, SCD vs. treatment", "setting": "[3]; [8]", "result": 192, "unit": "%"}, {"measurement": "plasma triglyceride concentration, SCD vs. treatment", "setting": "[3]; nine weeks treatment", "result": 101, "unit": "%"}, {"measurement": "array: increased expression in Pax6", "setting": "[4]", "result": 1.9, "unit": "fold"}, {"measurement": "array: increased expression in Foxa2", "setting": "[5]", "result": 1.9, "unit": "fold"}, {"measurement": "decreased expression of 11beta-HSD1 compared to standard diet", "setting": "[6]", "result": 61, "unit": "%"}, {"measurement": "increased expression of PDX-1 compared to standard diet", "setting": "[7]", "result": 96, "unit": "%"}]}]}
